Source: patent US10316080B2, “Protein-polymer-drug conjugates” (priority 2013, dated 2019)
pIC50: −log10 of the molar value.

Experiments:
NCI-N87 cells = assay: Cell viability assay (Cell Titer-Glo); type: cell-based; conditions: 72 h incubation
Procedure: (§1) PBRM-polymer-drug conjugates were evaluated for their antiproliferation properties in tumor cell lines in vitro using Cell Titer-Glo (Promega Corp). Cells were plated in black walled 96-well plate and allowed to adhere overnight at 37° C. in a humidified atmosphere of 5% CO2. SKBR3, BT474, NCI-N87 cells (HER2 expressing cells), MCF7 cells (HER2 low expressing levels cells) and JIMT1 cells (HER2 medium expression level cells) were plated at a density of 5,000 cells per well. The next day the medium was replaced with 50 μL fresh medium and 50 μL of 2× stocks of PBRM-polymer-drug conjugate, drug polymer conjugate or drug were added to appropriate wells, mixed and incubated for 72 h. Cell Titer-Glo reagent was added to the wells at room temperature and the luminescent signal was measured after 10 min using a SpectraMax M5 plate reader (Molecular Devices). Dose response curves were generated using SoftMax Pro software. IC50 values were determined from four-parameter curve fitting.

JIMT1 cells = assay: Cell viability assay (Cell Titer-Glo); type: cell-based; conditions: 72 h incubation; HER2 medium expression
Procedure: as §1

MCF7 cells = assay: Cell viability assay (Cell Titer-Glo); type: cell-based; conditions: 72 h incubation; HER2 low expressing cells
Procedure: as §1

BT474 cells = assay: Cell viability assay (Cell Titer-Glo); type: cell-based; conditions: 72 h incubation
Procedure: as §1

hErbB2 = hErbB2 (Homo sapiens, UniProt P04626); assay: Ligand binding by surface plasmon resonance (SPR); conditions: 25° C., immobilized hErbB2
Procedure: The kinetic binding of the PBRM-polymer-drug conjugate to an immobilized receptor was determined by BIAcore SPR.

SKBR3 cells = assay: Cell viability assay (Cell Titer-Glo); type: cell-based; conditions: 72 h incubation
Procedure: as §1

HL-60 cells = assay: Cell viability assay (Cell Titer-Glo); type: cell-based; conditions: 72 h incubation; CD33 expressing cells
Procedure: Dose response curves were generated using SoftMax Pro software. IC50 values were determined from four-parameter curve fitting.
CD33 expressing cells HL-60 were passed at a density of 5,000 cells per well and treated with PBRM-polymer-drug conjugate on the same day. After 72 h incubation, the cells were analyzed using the same procedure described above.

A431 cells = assay: Cell viability assay (Cell Titer-Glo); type: cell-based; conditions: first of two experiments (first value in cell)
Procedure: as §1

LLC1 cells = assay: Cell viability assay (Cell Titer-Glo); type: cell-based; conditions: 5T4 negative control cells; second of two experiments
Procedure: as §1

[1] = Mouse tissue distribution after administration of PBRM-polymer-drug conjugates; type: in vivo, mice
Procedure: To determine the concentration of the free drug in the sample, the acidified sample was treated with acetonitrile. The free drug was extracted from the supernatant and analyzed by LC-MS/MS.
Female CB-17 SCID mice were inoculated subcutaneously with BT474 tumors (n=4 for each group).
At 48 hours post administration, the mice were sacrificed and the blood was collected by terminal cardiac.

| Compound | pIC50 (NCI-N87 cells) | pIC50 (JIMT1 cells) | pIC50 (MCF7 cells) | pIC50 (BT474 cells) | ka (association rate constant) (hErbB2) | kd (dissociation rate constant) (hErbB2) | pIC50 (SKBR3 cells) | pIC50 (HL-60 cells) | pIC50 (A431 cells) | pIC50 (LLC1 cells) | Metabolism of released unconjugated AF-HPA in plasma ([1]; in plasma) | Metabolism of released unconjugated AF-HPA in tissue ([1]; in tissue) |
| --- | --- | --- | --- | --- | --- | --- | --- | --- | --- | --- | --- | --- |
| ado-trastuzumab emtansine [Kadcyla ®] | 10.05 | 7.74 | 7.41 | 8.62 | 4.61 ± 0.2 × 10^5 M^−1s^−1 | 3.17 ± 0.9 × 10^−5 s^−1 | 9.64 |  |  |  |  |  |
| CC[C@H](C)[C@@H]([C@@H](CC(=O)N1CCC[C@H]1[C@H](OC)[C@@H](C)C(=O)N[C@@H](Cc1ccccc1)C(=O)NCCCO)OC)N(C)C(=O)[C@@H](NC(=O)[C@H](C(C)C)N(C)C)C(C)C [AF-HPA, auristatin F hydroxypropyl amide] | 9.38 | 9.07 | 8.36 | 9.00 |  |  |  | 8.32 | 9.15 | < 7.00 | not converted to AF | further metabolized to AF |
